From US20110082074A1, “AGENT FOR PREVENTING PERIODONTAL DISEASE” (priority 2009, published 2011)
“Also recorded” adds a separate entry of the source.

Legend:
[1] = test system: binding between gingival cells and FimA II; assay: Effect of monosaccharide on binding inhibitory effect: labeled test cells bound to immobilized FimA II-His; assay type: cell-based, Porphyromonas gingivalis; details: monosaccharide final concentration 50 μg/ml with 10 μl RGD peptide−SBA beads; FIG. 6
Method: FimA II-His (10 μg/ml) was immobilized onto a 96-well plate, and test cells that had been fluorescently labeled with CellTracker Green CMFDA (Invitrogen) were bound thereto in an amount of 1×10^6 cells.
SBA beads, RGD peptide, or RGD peptide−SBA beads were allowed to coexist in the wells in an amount of 10 μl, and the plate was shaken. In addition to the RGD peptide−SBA beads, glucose or N-acetylgalactosamine (GalNAc) was allowed to coexist therewith in a final concentration of 50 μg/ml. For comparison, wells of a 96-well plate in which no beads were present and only N-acetylgalactosamine was present in a final concentration of 50 μg/ml were also prepared.
(§1) The 96-well plate was filled with PBS. After unbound cells were removed, bound cells were detected using a fluorescent plate reader.

[2] = target: T1, binding of FimA type II fimbrial protein to α5β1 integrin expression cells (Homo sapiens, UniProt P05556+P08648); assay: Binding Inhibitory Experiment 1: FimA II-His bound to seeded test cells, detected by ELISA; assay type: cell-based, Porphyromonas gingivalis; details: cells immobilized; 10 μl beads; about 30 μM RGD peptide or fibronectin, about 100 μM SBA; compared to fibronectin or RGD peptide alone; FIG. 2
T1 construct: expressed in transfected cells; host or cells: CHO (CHO-VLA5)
T1 sequence (P08648 42-894 limits assumed): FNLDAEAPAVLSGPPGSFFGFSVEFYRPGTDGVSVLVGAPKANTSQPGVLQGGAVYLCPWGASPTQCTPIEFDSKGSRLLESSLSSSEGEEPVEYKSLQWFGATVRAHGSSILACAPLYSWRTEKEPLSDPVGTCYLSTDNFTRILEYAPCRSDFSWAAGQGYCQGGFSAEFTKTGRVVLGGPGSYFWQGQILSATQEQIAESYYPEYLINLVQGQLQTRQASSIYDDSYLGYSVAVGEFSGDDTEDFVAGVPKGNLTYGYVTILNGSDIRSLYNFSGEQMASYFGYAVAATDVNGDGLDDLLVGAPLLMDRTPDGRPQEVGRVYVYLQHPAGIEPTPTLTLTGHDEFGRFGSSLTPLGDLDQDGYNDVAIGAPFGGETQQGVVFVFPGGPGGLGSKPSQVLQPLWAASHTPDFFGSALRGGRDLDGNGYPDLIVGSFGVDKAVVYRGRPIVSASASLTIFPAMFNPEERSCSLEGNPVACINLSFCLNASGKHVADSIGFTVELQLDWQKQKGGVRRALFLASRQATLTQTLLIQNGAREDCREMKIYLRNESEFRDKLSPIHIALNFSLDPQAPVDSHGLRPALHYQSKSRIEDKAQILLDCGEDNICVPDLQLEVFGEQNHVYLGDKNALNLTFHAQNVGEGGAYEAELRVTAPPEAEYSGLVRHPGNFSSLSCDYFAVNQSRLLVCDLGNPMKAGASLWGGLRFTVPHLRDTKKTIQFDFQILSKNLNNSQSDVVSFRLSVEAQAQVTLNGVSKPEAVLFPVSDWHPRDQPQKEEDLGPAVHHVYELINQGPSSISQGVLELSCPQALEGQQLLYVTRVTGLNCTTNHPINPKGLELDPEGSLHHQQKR
T1 sequence (P08648 895-1049 limits assumed): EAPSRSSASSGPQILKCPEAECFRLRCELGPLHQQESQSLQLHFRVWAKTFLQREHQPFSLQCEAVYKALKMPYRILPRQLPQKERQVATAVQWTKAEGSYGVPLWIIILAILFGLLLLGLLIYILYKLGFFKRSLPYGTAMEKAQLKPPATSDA
T1 sequence (P05556 21-798): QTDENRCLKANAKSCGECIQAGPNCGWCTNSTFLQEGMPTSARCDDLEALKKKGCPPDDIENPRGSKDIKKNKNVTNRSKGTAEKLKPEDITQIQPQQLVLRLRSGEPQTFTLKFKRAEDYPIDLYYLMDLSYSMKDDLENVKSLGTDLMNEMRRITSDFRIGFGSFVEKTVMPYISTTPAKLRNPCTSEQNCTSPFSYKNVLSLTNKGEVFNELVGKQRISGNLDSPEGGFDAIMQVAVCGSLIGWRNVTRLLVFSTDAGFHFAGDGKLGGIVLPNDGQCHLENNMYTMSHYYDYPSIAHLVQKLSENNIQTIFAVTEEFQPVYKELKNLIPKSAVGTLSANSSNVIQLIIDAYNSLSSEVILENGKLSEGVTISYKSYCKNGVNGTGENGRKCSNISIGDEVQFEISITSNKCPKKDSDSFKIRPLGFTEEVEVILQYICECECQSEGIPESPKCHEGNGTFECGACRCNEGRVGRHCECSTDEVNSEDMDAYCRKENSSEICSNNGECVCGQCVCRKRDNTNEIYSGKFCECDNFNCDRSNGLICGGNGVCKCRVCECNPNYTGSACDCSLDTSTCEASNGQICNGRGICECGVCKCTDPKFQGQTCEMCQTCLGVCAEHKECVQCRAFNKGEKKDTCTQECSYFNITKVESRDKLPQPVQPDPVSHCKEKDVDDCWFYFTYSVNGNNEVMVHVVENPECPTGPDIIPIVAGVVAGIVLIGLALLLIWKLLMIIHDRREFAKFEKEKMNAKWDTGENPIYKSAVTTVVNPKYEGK
Method: (§2) CHO cells on which α5β1 integrin was forcedly expressed by introducing a gene encoding α5β1 integrin (hereinafter sometimes referred to as “CHO-VLA5”), and gingival cells were used in the Binding Inhibitory Experiments described below. As the gingival cells, three types of cells, GE1, Ca9-22 and Sa3, were used. As a control, CHO cells into which α5β1 integrin was not introduced were used. GE1, Ca9-22, and Sa3 were obtained from ATCC (American Type Culture Collection).
Test cells were seeded into a 96-well plate in an amount of 5×10^5 cells. Subsequently, 50 μl of FimA II-His (10 μg/ml) was allowed to bind to the cells, and 10 μl of SBA beads, RGD peptide−SBA beads, or fibronectin−SBA beads were allowed to coexist. The plate was shaken at room temperature for 10 minutes. For comparison, an experiment in which an RGD peptide or fibronectin was allowed to coexist was performed in a similar manner. […]
After the 96-well plate was gently washed, FimA II-His bound to the cells was detected by ELISA using an anti-His tag antibody (Cat. No. 71554-3; available from Novagen).
The fibronectin−SBA bead solution contained about 30 μM of fibronectin and about 100 μM of SBA, whereas the solution containing only fibronectin contained about 30 μM of fibronectin. These values were calculated by measuring the amount of each protein not bound to the beads during the production. […]

[3] = target: T2, binding of type II FimA protein to α5β1 integrin expression cells (Homo sapiens, UniProt P05556+P08648); assay: Binding Inhibitory Experiment 2: fluorescently labeled test cells bound to immobilized FimA II-His; assay type: cell-based, Porphyromonas gingivalis; details: 50 μl beads, compared to fibronectin or RGD peptide alone, FIG. 3
T2 construct: expressed in transfected cells; host or cells: CHO (CHO-VLA5)
T2 sequence (P08648 42-894 limits assumed): as the sequence (P08648 42-894 limits assumed) above
T2 sequence (P08648 895-1049 limits assumed): as the sequence (P08648 895-1049 limits assumed) above
T2 sequence (P05556 21-798): as the sequence (P05556 21-798) above
Method: as §2
FimA II-His (10 μg/(ml)) was immobilized onto a 96-well plate, and test cells that had been fluorescently labeled with CellTracker Green CMFDA (available from Invitrogen) were added in an amount of 1×10^6 cells and allowed to bind.
50 μl of SBA beads, RGD peptide−SBA beads, or fibronectin−SBA beads were allowed to coexist in each well, and the plate was shaken. For comparison, an experiment in which an RGD peptide or fibronectin was allowed to coexist was performed in a similar manner.
Each well of the 96-well plates was filled with serum-free Dulbecco's modified Eagle's medium (hereinafter referred to as DMEM) or with PBS, and covered with a Parafilm to prevent air from entering. The plate was turned upside-down and allowed to stand for 5 minutes. After removing the Parafilm, a supernatant containing unbound cells was removed, and bound cells were detected using a fluorescent plate reader.

[4] = target: T3, α5β1 integrin expressing cells (Homo sapiens, UniProt P05556+P08648); assay: Binding ratio of RGD peptide or fibronectin to SBA beads, FimA II-His binding inhibitory experiment; assay type: cell-based; details: RGD peptide bound in an amount of 10 to 30 μg per 100 μg of SBA beads
T3 construct: expressed in transfected cells; host or cells: CHO (CHO-VLA5)
T3 sequence (P08648 42-894 limits assumed): as the sequence (P08648 42-894 limits assumed) above
T3 sequence (P08648 895-1049 limits assumed): as the sequence (P08648 895-1049 limits assumed) above
T3 sequence (P05556 21-798): as the sequence (P05556 21-798) above
Method: Another experiment was performed using α5β1 integrin expressing cells in a manner similar to the FimA II-His tag protein binding inhibitory experiment described above, to investigate the binding ratio of RGD peptide or fibronectin to SBA beads.

[5] = test system: P. gingivalis carrying type II FimA fimbrial protein; assay: Binding Inhibitory Experiment 3: fluorescently labeled P. gingivalis bound to seeded test cells; assay type: cell-based, Porphyromonas gingivalis; details: 30 μl beads, 10 μl P. gingivalis, room temperature 10 minutes; FIG. 4
Method: Test cells were seeded into a 96-well plate in an amount of 5×10^5 cells. The next day, 10 μl of P. gingivalis carrying FimA type II fimbrial protein was allowed to bind, and 30 μl each of SBA beads, RGD peptide−SBA beads, and fibronectin−SBA beads were added. The plate was shaken at room temperature for 10 minutes.
The 96-well plate was gently washed. Fluorescently labeled P. gingivalis carrying type II FimA fimbrial protein bound to the cells was detected using a fluorescence detector. P. gingivalis was fluorescently labeled by using an FITC Labeling Kit (manufactured by Kirkegaard & Perry Laboratories, Inc.) after P. gingivalis was immobilized with formalin.

TGF-β = assay: Confirmation of cytokine production: TGF-β produced by Ca9-22 cells; assay type: cell-based; details: 30 μl beads, FIG. 7
Method: Ca9-22 cells were seeded into a 96-well plate in an amount of 5×10^5 cells. The next day, (1) a lipopolysaccharide (hereinafter also referred to as “LPS”; 10 ng/ml), (2) TNF-α(10 ng/ml), (3) P. gingivalis carrying FimA type II fimbrial protein (5 μl), or (4) FimA II-GST (10 μg/ml) was added as a reagent. The parenthesized numerals in the above sentence indicate the final concentrations in the media containing the reagents to 50 μl of the medium.
SBA beads, RGD peptide−SBA beads, or fibronectin−SBA beads were allowed to coexist therewith in an amount of 30 μl, and the plate was rocked. The amount of TGF-β produced was then measured.

[6] = test system: TNFRI (TNF-α Receptor Type I); assay: TNFRI phosphorylation by western blotting in test cells treated with P. gingivalis; assay type: cell-based; details: test cells with P. gingivalis carrying type II FimA fimbrial protein (10 μl), 30 μl beads, FIG. 8
Method: Test cells were seeded into a 96-well plate in an amount of 5×10^5 cells. The next day, each well was washed with DMEM, and then P. gingivalis carrying type II FimA fimbrial protein (10 μl) was added as a reagent. The numerical value in the parentheses indicates the final concentration in the medium containing the reagent.
SBA beads, RGD peptide−SBA beads, or fibronectin−SBA beads were allowed to coexist therewith in an amount of 30 μl, and the plate was shaken. After each plate was washed well with PBS, cells were dissolved in 1% NP-40, and subjected to western blotting using an anti-TNFRI antibody, anti-tyrosine phosphorylation antibody, and anti-actin antibody.

[7] = test system: interaction between gingival cells and FimA II; assay: Comparison with other lectins: labeled test cells bound to immobilized FimA II-His; assay type: cell-based, Porphyromonas gingivalis; details: 10 μL beads; SBA compared to WGA (wheat germ lectin); FIG. 5
Method: FimA II-His (10 μg/ml) was immobilized onto a 96-well plate, and test cells that had been fluorescently labeled with CellTracker Green CMFDA (manufactured by Invitrogen) were bound in an amount of 1×10^6 cells.
Subsequently, 10 μL of SBA beads, RGD peptides, RGD peptide−SBA beads, WGA beads, or RGD peptide-WGA beads were allowed to coexist, and the plate was shaken.
The WGA beads are beads prepared in the same manner as in the production of SBA beads described above in Item 1, except for using WGA in place of SBA. The RGD peptide-WGA beads are beads prepared in the same manner as in the production of RGD peptide−SBA beads described above in Item 2, except for using WGA in place of SBA.
as §1

[8] = Ca9-22 cells treated with LPS 10 ng/ml
[9] = Ca9-22 cells treated with TNF-α 10 ng/ml
[10] = Ca9-22 cells with FimA II-GST 10 μg/ml
[11] = Ca9-22 cells with P. gingivalis carrying FimA type II fimbrial protein (5 μl)

Row | Compound | effect of coexisting monosaccharide on the RGD peptide−SBA binding inhibitory effect [1] | inhibition of binding of FimA type II fimbrial protein to α5β1 integrin expression cells [2] | inhibition of binding of type II FimA protein to α5β1 integrin expression cells [3] | binding inhibition depending on binding ratio of RGD peptide to SBA beads [4] | inhibition of binding of P. gingivalis carrying type II FimA fimbrial protein to gingival cells [5] | production of TGF-β (TGF-β; [8]) | production of TGF-β (TGF-β; [9]) | production of TGF-β (TGF-β; [10]) | production of TGF-β (TGF-β; [11]) | phosphorylated tyrosine of the activation receptor (TNFRI) [6] | inhibition of the interaction between gingival cells and FimA II [7]
1 | CC(=O)N[C@H]1C(O)O[C@H](CO)[C@H](O)[C@@H]1O (stereo partly shown) [N-acetylgalactosamine] | did so | – | – | – | – | – | – | – | – | – | –
2 | RGD peptide−SBA beads: beads in which SBA beads and RGD-peptide (SEQ ID NO: 3, RGDSPASSKP) are bound | – | significantly inhibited | significantly inhibited; also recorded: higher than that of fibronectin−SBA beads | inhibited binding most effectively | inhibited; also recorded: remarkably high binding inhibitory effect | production of TGF-β was observed | production of TGF-β was observed | production of TGF-β was inhibited | production of TGF-β was inhibited | not detected | –
3 | SBA beads: conjugate of soybean lectin and NHS-activated Sepharose beads | – | – | – | – | slightly inhibited binding | production of TGF-β was observed | production of TGF-β was observed | production of TGF-β was detected | production of TGF-β was detected | – | –
4 | SBA: soybean lectin (soybean agglutinin), mucin-type sugar chain-binding lectin; tested bound to beads | – | – | – | – | – | – | – | – | – | – | more potently inhibits
